Test results taken from patent EP0908457B1, “3-(1,2-benzisothiazol- and isoxazol-5-Y1)-2,4(1H,3H)-pyrimidinedione or thione and 3-(1,2-benzisothiazol- and isoxazol-5-y1)-4(3H)-pyrimidinone or thione herbicidal agents” (BASF AKTIENGESELLSCHAFT, priority 1997, dated 1999).

Legend:
Cyperus iria [1] = experiment: Preemergence weed control under flooded paddy conditions, CYPIR (Rice Flatsedge); type: in vivo; conditions: preemergence, flooded paddy, rated three to four weeks after treatment; note: meaning of each grade not given here
[2] = test system: Monochoria vaginalis, Presl.; experiment: Postemergence weed control under flooded paddy conditions, MOOVA (Monochoria); type: in vivo; conditions: rated three to four weeks after treatment
Sagittaria pygmaea, L. [3] = experiment: Preemergence weed control under flooded paddy conditions, SAGPY (Arrowhead (Pygmaea)); type: in vivo; conditions: preemergence, flooded paddy, rated three to four weeks after treatment; note: meaning of each grade not given here
[4] = test system: Oryza sativa, (L.) Tebonnet; experiment: Rice tolerance to post-transplant applications under flooded paddy conditions (Example 187), ORYSAT (Rice, Tebonnet); conditions: rated three to four weeks after treatment
[5] = test system: Monochoria vaginalis, Presl.; experiment: Preemergence weed control under flooded paddy conditions, MOOVA (Monochoria); type: in vivo; conditions: preemergence, flooded paddy, rated three to four weeks after treatment; note: meaning of each grade not given here
Cyperus iria [6] = experiment: Postemergence weed control under flooded paddy conditions, CYPIR (Rice Flatsedge); type: in vivo; conditions: rated three to four weeks after treatment
[7] = test system: Cyperus serotinus, Rottb.; experiment: Postemergence weed control under flooded paddy conditions, CYPSE (Flatsedge); type: in vivo; conditions: rated three to four weeks after treatment
[8] = test system: Oryza sativa, (L.) Tebonnet; experiment: Rice tolerance to post-transplant applications under flooded paddy conditions (Example 188), ORYSAT (Rice, Tebonnet); conditions: rated three to four weeks after treatment
[9] = test system: Cyperus serotinus, Rottb.; experiment: Preemergence weed control under flooded paddy conditions, CYPSE (Flatsedge); type: in vivo; conditions: preemergence, rated three to four weeks after treatment; note: meaning of each grade not given here
[10] = test system: Echinochloa oryzoides (Ard.) Fritsch.; experiment: Postemergence weed control under flooded paddy conditions, ECHORC (Watergrass (Calif.)); type: in vivo; conditions: rated three to four weeks after treatment
[11] = test system: Echinochloa oryzoides (Ard.) Fritsch.; experiment: Preemergence weed control under flooded paddy conditions, ECHORC (Watergrass (Calif.)); type: in vivo; conditions: preemergence, flooded paddy, rated three to four weeks after treatment; note: meaning of each grade not given here
Sagittaria pygmaea, L. [12] = experiment: Postemergence weed control under flooded paddy conditions, SAGPY (Arrowhead (Pygmaea)); type: in vivo; conditions: rated three to four weeks after treatment

COc1cc(C)ccc1-c1nsc2ccc(-n3c(=O)cc(C(F)(F)F)n(C)c3=O)cc12 [Example 7, 3-[3-(2-Methoxy-p-tolyl)-1,2-benzisothiazol-5-yl]-1-methyl-6-(trifluoromethyl)-2,4(1H,3H)-pyrimidinedione]
7.0: herbicidal effect rating, ORYSAT (rice tolerance) ([4]; 0.1250 kg/ha) | herbicidal effect rating, ORYSAT (rice tolerance) ([4]; 0.2500 kg/ha) | herbicidal effect rating, ORYSAT (rice tolerance) ([8]; Rate 0.0313 kg/ha) | herbicidal effect rating, ORYSAT (rice tolerance) ([8]; Rate 0.0625 kg/ha) | herbicidal effect rating, ORYSAT (rice tolerance) ([8]; Rate 0.1250 kg/ha) | herbicidal effect rating, ORYSAT (rice tolerance) ([8]; Rate 0.2500 kg/ha) | herbicidal effect rating, CYPSE ([9]; 0.0313 kg/ha) | herbicidal effect rating, CYPSE ([9]; 0.0625 kg/ha) | herbicidal effect rating, CYPSE ([9]; 0.2500 kg/ha)
4.0: herbicidal effect rating, SAGPY (Sagittaria pygmaea, L. [12]; Rate 0.1250 kg/ha)
8.0: herbicidal effect rating, SAGPY (Sagittaria pygmaea, L. [3]; 0.0625 kg/ha) | herbicidal effect rating, ORYSAT (rice tolerance) ([4]; 0.0625 kg/ha) | herbicidal effect rating, CYPSE ([7]; Rate 0.5000 kg/ha) | herbicidal effect rating, ORYSAT (rice tolerance) ([8]; Rate 0.5000 kg/ha) | herbicidal effect rating, CYPSE ([9]; 0.1250 kg/ha)
0.0: herbicidal effect rating, SAGPY (Sagittaria pygmaea, L. [12]; Rate 0.0313 kg/ha)
2.0: herbicidal effect rating, CYPSE ([7]; Rate 0.0313 kg/ha) | herbicidal effect rating, SAGPY (Sagittaria pygmaea, L. [12]; Rate 0.0625 kg/ha)
6.0: herbicidal effect rating, SAGPY (Sagittaria pygmaea, L. [3]; 0.0313 kg/ha) | herbicidal effect rating, ORYSAT (rice tolerance) ([4]; 0.0313 kg/ha) | herbicidal effect rating, CYPSE ([7]; Rate 0.0625 kg/ha)
9.0: herbicidal effect rating, CYPIR (Cyperus iria [1]; 0.0313 kg/ha) | herbicidal effect rating, CYPIR (Cyperus iria [1]; 0.0625 kg/ha) | herbicidal effect rating, CYPIR (Cyperus iria [1]; 0.1250 kg/ha) | herbicidal effect rating, CYPIR (Cyperus iria [1]; 0.2500 kg/ha) | herbicidal effect rating, CYPIR (Cyperus iria [1]; 0.5000 kg/ha) | herbicidal effect rating, MOOVA ([2]; Rate 0.0313 kg/ha) | herbicidal effect rating, MOOVA ([2]; Rate 0.0625 kg/ha) | herbicidal effect rating, MOOVA ([2]; Rate 0.1250 kg/ha) | herbicidal effect rating, MOOVA ([2]; Rate 0.2500 kg/ha) | herbicidal effect rating, MOOVA ([2]; Rate 0.5000 kg/ha) | herbicidal effect rating, SAGPY (Sagittaria pygmaea, L. [3]; 0.1250 kg/ha) | herbicidal effect rating, SAGPY (Sagittaria pygmaea, L. [3]; 0.2500 kg/ha) | herbicidal effect rating, SAGPY (Sagittaria pygmaea, L. [3]; 0.5000 kg/ha) | herbicidal effect rating, ORYSAT (rice tolerance) ([4]; 0.5000 kg/ha) | herbicidal effect rating, MOOVA ([5]; 0.0313 kg/ha) | herbicidal effect rating, MOOVA ([5]; 0.0625 kg/ha) | herbicidal effect rating, MOOVA ([5]; 0.1250 kg/ha) | herbicidal effect rating, MOOVA ([5]; 0.2500 kg/ha) | herbicidal effect rating, MOOVA ([5]; 0.5000 kg/ha) | herbicidal effect rating, CYPIR (Cyperus iria [6]; Rate 0.0313 kg/ha) | herbicidal effect rating, CYPIR (Cyperus iria [6]; Rate 0.0625 kg/ha) | herbicidal effect rating, CYPIR (Cyperus iria [6]; Rate 0.1250 kg/ha) | herbicidal effect rating, CYPIR (Cyperus iria [6]; Rate 0.2500 kg/ha) | herbicidal effect rating, CYPIR (Cyperus iria [6]; Rate 0.5000 kg/ha) | herbicidal effect rating, CYPSE ([7]; Rate 0.1250 kg/ha) | herbicidal effect rating, CYPSE ([7]; Rate 0.2500 kg/ha) | herbicidal effect rating, CYPSE ([9]; 0.5000 kg/ha) | herbicidal effect rating, ECHORC ([10]; Rate 0.0313 kg/ha) | herbicidal effect rating, ECHORC ([10]; Rate 0.0625 kg/ha) | herbicidal effect rating, ECHORC ([10]; Rate 0.1250 kg/ha) | herbicidal effect rating, ECHORC ([10]; Rate 0.2500 kg/ha) | herbicidal effect rating, ECHORC ([10]; Rate 0.5000 kg/ha) | herbicidal effect rating, ECHORC ([11]; 0.0313 kg/ha) | herbicidal effect rating, ECHORC ([11]; 0.0625 kg/ha) | herbicidal effect rating, ECHORC ([11]; 0.1250 kg/ha) | herbicidal effect rating, ECHORC ([11]; 0.2500 kg/ha) | herbicidal effect rating, ECHORC ([11]; 0.5000 kg/ha) | herbicidal effect rating, SAGPY (Sagittaria pygmaea, L. [12]; Rate 0.2500 kg/ha) | herbicidal effect rating, SAGPY (Sagittaria pygmaea, L. [12]; Rate 0.5000 kg/ha)
